Measurements from patent US12378186B2, “Inhibitors of meprin α and β” (VIVORYON THERAPEUTICS N.V., priority 2016, dated 2025).
Read-outs that look alike come from different tables or passages of the source.

Assays:
hMeprin α = molecular target: T1, hMeprin α (Homo sapiens, UniProt Q16819); experiment: biochemical; format: biochemical; conditions: 30° C., 40 mM HEPES pH 7.4; for IC50: average IC50, 10 μM substrate, read-out: Meprin Alpha IC50; for Ki: average Ki, 4 substrate concentrations (5-40 μM), read-out: Meprin Alpha Ki
T1 sequence (Q16819 66-746): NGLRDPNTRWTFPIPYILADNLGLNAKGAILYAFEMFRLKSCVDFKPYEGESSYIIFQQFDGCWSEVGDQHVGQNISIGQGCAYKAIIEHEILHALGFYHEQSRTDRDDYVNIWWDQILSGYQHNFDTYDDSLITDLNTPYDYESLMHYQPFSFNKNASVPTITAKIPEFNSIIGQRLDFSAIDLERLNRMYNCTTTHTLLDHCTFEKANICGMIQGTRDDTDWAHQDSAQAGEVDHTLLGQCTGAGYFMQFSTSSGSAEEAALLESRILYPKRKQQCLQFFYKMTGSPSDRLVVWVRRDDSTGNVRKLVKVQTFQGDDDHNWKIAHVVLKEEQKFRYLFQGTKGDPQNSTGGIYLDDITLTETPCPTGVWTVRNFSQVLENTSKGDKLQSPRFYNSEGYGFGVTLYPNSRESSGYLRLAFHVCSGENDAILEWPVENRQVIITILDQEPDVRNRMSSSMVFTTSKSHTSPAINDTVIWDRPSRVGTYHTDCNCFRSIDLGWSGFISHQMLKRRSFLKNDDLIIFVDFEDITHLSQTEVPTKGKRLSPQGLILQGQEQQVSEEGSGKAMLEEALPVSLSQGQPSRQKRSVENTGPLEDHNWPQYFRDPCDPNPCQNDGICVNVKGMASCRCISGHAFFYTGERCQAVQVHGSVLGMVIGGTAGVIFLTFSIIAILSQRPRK
Protocol: (§1) A typical assay of 250 μl total volume measured in black 96 well plates consisted of 100 μl buffer, 50 μl enzyme at a final concentration of 5e-8 M to 5e-9 M, 50 μl substrate (0.15 to 80 μM, in buffer, 0.5% DMSO) and 50 μl inhibitor solution (in buffer, 1% DMSO). In case of 125 μl assay volume (black 96 half area well plates) all volumes were cut in half. Enzymatic activity of ADAMs was measured in 384 well plates with 60 μl total assay volume consisting of 20 μl inhibitor, 20 μl buffer, 10 μl enzyme and 10 μl substrate.
(§2) Ki values were assessed combining 4 substrate concentrations (5-40 μM) with at least 5 inhibitor concentrations. […] Initial velocities were determined and converted into concentration units applying a standard curve obtained after complete conversion of different substrate concentrations under assay conditions. All measurements were performed using a fluorescence plate reader (FLUOstar OPTIMA, BMG Labtech) at 30° C. The kinetic parameters were determined at least in duplicates on separate days. The excitation/emission wavelength was 340/420 nm. The kinetic data was evaluated using GraFit software (version 7.0.3, Erithacus Software).
(§3) The following compounds according to the present invention were synthesized using the above general procedures. IC50 refers to the average IC50 values measured as described above, SD (IC50) refers to the standard deviation of the average IC50 values, Ki refers to the average K; values measured as described above, and SD (Ki) to the standard deviation of the average Ki values.

hMeprin β = molecular target: T2, hMeprin β (Homo sapiens, UniProt Q16820); experiment: Enzymatic assay, cleavage of internally quenched peptide substrate, hMeprin β; format: biochemical
T2 sequence (Q16820 62-701): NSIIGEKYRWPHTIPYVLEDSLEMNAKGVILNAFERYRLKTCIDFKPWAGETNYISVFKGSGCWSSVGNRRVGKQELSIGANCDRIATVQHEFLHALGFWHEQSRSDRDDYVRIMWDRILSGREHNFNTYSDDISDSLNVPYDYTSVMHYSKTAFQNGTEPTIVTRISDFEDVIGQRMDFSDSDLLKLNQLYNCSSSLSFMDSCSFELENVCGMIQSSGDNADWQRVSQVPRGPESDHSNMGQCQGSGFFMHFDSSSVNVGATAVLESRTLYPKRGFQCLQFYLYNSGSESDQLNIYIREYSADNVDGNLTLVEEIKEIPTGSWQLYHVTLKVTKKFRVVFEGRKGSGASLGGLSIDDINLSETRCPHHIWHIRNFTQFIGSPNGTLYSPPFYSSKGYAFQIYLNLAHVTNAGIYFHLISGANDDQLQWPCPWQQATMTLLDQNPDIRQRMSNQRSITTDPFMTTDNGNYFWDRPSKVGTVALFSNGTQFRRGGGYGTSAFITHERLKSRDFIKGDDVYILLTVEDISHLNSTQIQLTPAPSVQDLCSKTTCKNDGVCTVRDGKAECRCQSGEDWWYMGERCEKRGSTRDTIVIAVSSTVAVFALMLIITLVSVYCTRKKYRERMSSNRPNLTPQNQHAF
Protocol: as §1, §2, §3

[1] = average IC50, 10 μM substrate, 30° C., 40 mM Tris pH 8.0, read-out: Meprin Beta IC50

Row | IC50 (hMeprin β) | Compound | IC50 (hMeprin α) | Ki (hMeprin α) | Ki (hMeprin β) | IC50 (hMeprin β; [1])
1 | – | O=C(CN(Cc1cccc(C(=O)O)c1)Cc1ccc2c(c1)OCO2)NO [Example 22, 3-[[1,3-Benzodioxol-5-ylmethyl-[2-(hydroxy-amino)-2-oxo-ethyl]amino]-methyl]benzoic acid] | 1.43 µM | 0.606 µM | 0.105 µM | –
2 | 20 µM | COc1ccc(CN(CC(=O)NO)Cc2ccc3c(c2)OCO3)cc1 [Example 23] | 1.68 µM | – | – | –
3 | 60.9 µM | COc1ccc(CN(CC(=O)NO)Cc2ccc(C)cc2)cc1 [Example 24, 2-[(4-Methoxyphenyl)methyl-(p-tolylmethyl)-amino]ethanehydroxamic acid] | 2.33 µM | – | – | –
4 | 80.4 µM | COc1ccc(CN(CC(=O)NO)Cc2ccc(F)cc2)cc1 [Example 25, 2-[(4-fluorophenyl)methyl-[(4-methoxyphenyl)-methyl]amino]ethanehydroxamic acid] | 4.13 µM | – | – | –
5 | 53.4 µM | COc1ccc(CN(CC(=O)NO)Cc2ccc(Cl)cc2)cc1 [Example 26, 2-[(4-Chlorophenyl)methyl-[(4-methoxyphenyl)-methyl]amino]ethanehydroxamic acid] | 1.99 µM | – | – | –
6 | 34.5 µM | COc1ccc(CN(CC(=O)NO)Cc2cccc(OC)c2)cc1 [Example 27, 2-[(3-Methoxyphenyl)methyl-[(4-methoxyphenyl)-methyl]amino]ethanehydroxamic acid] | 3.2 µM | – | – | –
7 | – | C[C@H](NCc1cccc(C(=O)O)c1)C(=O)NO [Example 28, 3-[[[(1S)-2-(Hydroxyamino)-1-methyl-2-oxo-ethyl]amino]methyl]benzoic acid] | 16.7 µM | – | 3.1 µM | 4.2 µM
8 | – | CC(C)[C@H](NCc1cccc(C(=O)O)c1)C(=O)NO [Example 29, 3-[[[(1S)-1-(Hydroxycarbamoyl)-2-methyl-propyl]amino]methyl]benzoic acid] | 44.4 µM | – | – | 15.8 µM
9 | – | O=C(O)c1cccc(CN[C@@H](Cc2ccccc2)C(=O)NO)c1 [Example 30, 3-[[[(1S)-1-Benzyl-2-(hydroxyamino)-2-oxo-ethyl]amino]methyl]benzoic acid] | 10.2 µM | – | – | 15.5 µM
10 | – | COc1ccc(CN(CCC(=O)NO)Cc2cccc(C(=O)O)c2)cc1 [Example 31, 3-[[[3-(Hydroxyamino)-3-oxo-propyl]-[(4-methoxyphenyl)methyl]amino]-methyl]benzoic acid] | 0.233 µM | 0.087 µM | 0.165 µM | 0.643 µM
11 | 39.3 µM | CC(C)(NCc1cccc(C(=O)O)c1)C(=O)NO [Example 32, 3-[[[2-(Hydroxyamino)-1,1-dimethyl-2-oxo-ethyl]amino]methyl]benzoic acid] | 265 µM | – | – | –
12 | – | C[C@@H](NCc1cccc(C(=O)O)c1)C(=O)NO [Example 33, 3-{[[(1R)-2-(Hydroxyamino)-1-methyl-2-oxo-ethyl]amino]methyl]benzoic acid] | 45.1 µM | – | 2.58 µM | 4.25 µM
13 | – | CC(C)[C@@H](NCc1cccc(C(=O)O)c1)C(=O)NO [Example 34, 3-[[[(1R)-1-(Hydroxycarbamoyl)-2-methyl-propyl]amino]methyl]benzoic acid] | 30 µM | – | – | 11.8 µM
14 | – | O=C(O)c1cccc(CN[C@H](Cc2ccccc2)C(=O)NO)c1 [Example 35, 3-[[[(1R)-1-Benzyl-2-(hydroxyamino)-2-oxo-ethyl]amino]methyl]benzoic acid] | 2.65 µM | – | 1.36 µM | 2.91 µM
15 | – | O=C(O)c1cccc(CN[C@@H](C(=O)NO)c2ccccc2)c1 [Example 36, 3-[[[(1R)-2-(Hydroxyamino)-2-oxo-1-phenyl-ethyl]amino]methyl]benzoic acid] | 21.7 µM | – | – | 11.7 µM
16 | – | O=C(O)c1cccc(CN[C@H](C(=O)NO)c2ccccc2)c1 [Example 37, 3-[[[(1S)-2-(Hydroxyamino)-2-oxo-1-phenyl-ethyl]amino]methyl]benzoic acid] | 26.3 µM | – | – | 12.2 µM
17 | – | COc1ccc(CN(CCCC(=O)NO)Cc2cccc(C(=O)O)c2)cc1 [Example 38, 3-[[[4-(hydroxyamino)-4-oxo-butyl]-[(4-methoxyphenyl)methyl]amino]-methyl]benzoic acid] | 2.61 µM | 0.948 µM | 0.225 µM | 0.742 µM
18 | – | O=C(O)CC[C@H](NCc1cccc(C(=O)O)c1)C(=O)NO [Example 39, 3-[[[(1S)-3-carboxy-1-(hydroxylcarbamoyl)-propyl]amino]methyl]benzoic acid] | 8.66 µM | 2.53 µM | 0.325 µM | 0.654 µM
19 | – | N#Cc1cccc(CN(CC(=O)NO)Cc2cccc(C#N)c2)c1 [Example 40, 2-[bis[(3-cyanophenyl)methyl]amino]-ethanehydroxamic acid] | 1.47 µM | 0.521 µM | – | 12 µM
20 | – | NC(=O)c1cccc(CN(CC(=O)NO)Cc2cccc(C(N)=O)c2)c1 [Example 41, 3-[[(3-carbamoylphenyl)methyl-[2-(hydroxyamino)-2-oxo-ethyl]amino]methyl]benzamide] | 2.9 µM | 0.852 µM | – | 13.1 µM
21 | 25 µM | COC(=O)c1cccc(CN(CC(=O)NO)Cc2cccc(C(N)=O)c2)c1 [Example 42] | 3.54 µM | 1.19 µM | – | –
22 | 0.516 µM | COC(=O)c1cccc(CN(CC(=O)NO)Cc2cccc(C(=O)O)c2)c1 [Example 43] | 6.28 µM | 1.74 µM | 0.152 µM | –
23 | – | O=C(O)CC[C@@H](NCc1cccc(C(=O)O)c1)C(=O)NO [Example 44, 3-[[[(1R)-3-carboxy-1-(hydroxycarbamoyl)-propyl]amino]methyl]benzoic acid] | 32.1 µM | – | 0.277 µM | 0.768 µM
24 | – | O=C(O)C[C@H](NCc1cccc(C(=O)O)c1)C(=O)NO [Example 45, 3-[[[(1S)-1-(carboxymethyl)-2-(hydroxyamino)-2-oxo-ethyl]amino]methyl]benzoic acid] | 60.4 µM | – | 0.644 µM | 1.32 µM
25 | – | O=C(O)C[C@@H](NCc1cccc(C(=O)O)c1)C(=O)NO [Example 46, 3-[[[(1R)-1-(carboxymethyl)-2-(hydroxyamino)-2-oxo-ethyl]amino]methyl]benzoic acid] | 15.1 µM | – | 0.254 µM | 0.548 µM
26 | – | O=C(CN(Cc1ccc(F)c(O)c1F)Cc1ccc(F)c(O)c1F)NO [Example 47, 2-[bis[(2,4-difluoro-3-hydroxy-phenyl)-methyl]amino]ethanehydroxamic acid] | 0.626 µM | 0.189 µM | 0.012 µM | 0.023 µM
27 | – | O=C(CN(Cc1cc(F)c(O)c(F)c1)Cc1cc(F)c(O)c(F)c1)NO [Example 48, 2-[bis[(3,5-difluoro-4-hydroxy-phenyl)methyl]-amino]ethanehydroxamic acid] | 1.3 µM | 0.263 µM | 0.118 µM | 0.272 µM
